The values below come from patent US10669272B2, “Substituted naphthyridinone compounds useful as T cell activators” (BRISTOL-MYERS SQUIBB COMPANY, priority 2018, dated 2020).

Where two headings read alike, the source gives them in different places.

In one assay the test system is naïve human CD8 T cells. The assay is described as follows: Human CD8 T cells IFN-γ assay.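 Note: Naïve human CD8 T cells stimulated with plate-bound anti-CD3 and soluble anti-CD28, IFN-γ in supernatant quantified by AlphaLISA and converted to pg/mL.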 The format is cell-based. The note with it: read-out: HuCD8 INFG Normalized EC50.
The subject of another assay is Human venous whole blood. Kind of assay: Human whole blood IFN-γ assay.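 Note: blood from healthy donors exposed to compound for 1 h before stimulation with anti-CD3 and anti-CD28 at 1 µg/mL each, IFN-γ quantified in supernatant by AlphaLISA.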 The class given is cell-based. The note with it: human whole blood, read-out: INFg Whole Blood Normalized Agonist EC50.
For the next assay, the target named is T1, human DGKα (Homo sapiens, UniProt P23743).
T1 construct: TVMV protease cleavage site (C); Hexa-His (C); made in house; host or cells: Sf9 insect cells (baculovirus, Bac-to-Bac)
Kind of assay: DGKα LIPGLO assay (extruded liposome substrate), in vitro DGK inhibition. The format is biochemical. The note with it: read-out: DGKa LIPGLO IC50.

A further assay deals with T2, human DGKζ (Homo sapiens, UniProt Q13574).
T2 construct: TVMV protease cleavage site (C); Hexa-His (C); made in house; host or cells: Sf9 insect cells (baculovirus, Bac-to-Bac)
The assay is described as follows: DGKζ LIPGLO assay (extruded liposome substrate), in vitro DGK inhibition. The class given is biochemical. Particulars: read-out: DGKz LIPGLO IC50.

The mark [1] stands for this setting: Homo sapiens, T-cell, 20 h, normalized to 3 μM reference compound with anti-CD3 plus anti-CD28 as 100% activation.
[2] abbreviates: Homo sapiens, 24 h, normalized to 3 μM reference compound with anti-CD3 plus anti-CD28 as 100% activation.
Setting [3] is: normalized to 3 μM reference compound with anti-CD3 plus anti-CD28 as 100% activation.
Setting [4] is: Homo sapiens, T-cell, 20 h, naïve human CD8 T cells, anti-CD3 plus anti-CD28, 3 μM reference compound = 100% activation.

T1 sequence (P23743 with tags, fused parts or gaps): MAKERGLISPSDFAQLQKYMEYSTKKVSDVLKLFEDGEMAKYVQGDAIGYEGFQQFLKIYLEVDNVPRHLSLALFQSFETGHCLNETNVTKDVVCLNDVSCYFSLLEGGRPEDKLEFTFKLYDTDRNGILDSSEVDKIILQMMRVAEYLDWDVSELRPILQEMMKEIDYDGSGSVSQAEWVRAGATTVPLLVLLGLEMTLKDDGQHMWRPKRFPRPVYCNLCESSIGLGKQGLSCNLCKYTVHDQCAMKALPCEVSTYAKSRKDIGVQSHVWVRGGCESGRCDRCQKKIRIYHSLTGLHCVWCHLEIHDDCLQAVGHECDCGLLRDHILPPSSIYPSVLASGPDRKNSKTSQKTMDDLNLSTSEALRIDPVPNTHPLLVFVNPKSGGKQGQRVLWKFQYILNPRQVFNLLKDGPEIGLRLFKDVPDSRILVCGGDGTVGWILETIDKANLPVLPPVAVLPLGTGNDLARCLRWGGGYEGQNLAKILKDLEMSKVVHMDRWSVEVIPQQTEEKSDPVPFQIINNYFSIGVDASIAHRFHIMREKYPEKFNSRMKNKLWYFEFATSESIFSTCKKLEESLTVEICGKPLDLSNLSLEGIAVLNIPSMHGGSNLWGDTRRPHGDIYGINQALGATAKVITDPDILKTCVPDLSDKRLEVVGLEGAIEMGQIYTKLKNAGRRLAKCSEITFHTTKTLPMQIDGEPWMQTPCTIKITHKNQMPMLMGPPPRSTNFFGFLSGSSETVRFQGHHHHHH
T2 sequence (Q13574 with tags, fused parts or gaps isoform Q13574-4): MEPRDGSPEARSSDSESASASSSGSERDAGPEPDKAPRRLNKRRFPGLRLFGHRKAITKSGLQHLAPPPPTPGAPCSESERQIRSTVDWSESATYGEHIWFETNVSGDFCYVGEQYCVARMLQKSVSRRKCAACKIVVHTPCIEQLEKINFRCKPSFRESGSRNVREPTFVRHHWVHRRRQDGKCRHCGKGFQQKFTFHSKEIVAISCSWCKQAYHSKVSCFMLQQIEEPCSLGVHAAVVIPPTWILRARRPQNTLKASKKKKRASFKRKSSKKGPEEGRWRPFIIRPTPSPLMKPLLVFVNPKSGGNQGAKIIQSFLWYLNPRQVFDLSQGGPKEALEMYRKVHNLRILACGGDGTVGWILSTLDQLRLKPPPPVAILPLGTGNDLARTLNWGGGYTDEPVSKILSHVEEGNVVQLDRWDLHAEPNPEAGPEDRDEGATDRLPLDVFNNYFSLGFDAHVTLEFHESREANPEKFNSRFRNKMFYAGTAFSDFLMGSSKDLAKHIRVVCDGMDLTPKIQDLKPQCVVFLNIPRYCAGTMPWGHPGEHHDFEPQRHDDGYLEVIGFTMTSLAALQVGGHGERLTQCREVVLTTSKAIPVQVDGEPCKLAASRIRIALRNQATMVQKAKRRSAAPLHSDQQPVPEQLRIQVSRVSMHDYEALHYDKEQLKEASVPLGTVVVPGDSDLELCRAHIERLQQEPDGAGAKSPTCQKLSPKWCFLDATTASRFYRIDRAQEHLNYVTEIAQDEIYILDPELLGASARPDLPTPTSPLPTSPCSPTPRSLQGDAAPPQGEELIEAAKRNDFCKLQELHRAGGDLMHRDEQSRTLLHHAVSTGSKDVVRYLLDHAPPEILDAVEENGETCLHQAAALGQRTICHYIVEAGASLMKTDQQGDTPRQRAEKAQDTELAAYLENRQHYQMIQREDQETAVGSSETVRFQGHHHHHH
Method for Human venous whole blood: Human Whole Blood IFN-γ Assay
Human venous whole blood (22.5 μL per well), obtained from healthy donors, was pre-treated with compounds for one hour at 37° C. in a humidified 95% air/5% CO2 incubator. The blood was stimulated with 2.5 μL anti-human CD3 and anti-CD28 mAb at a final concentration of 1 μg/mL each for 24 hours at 37° C. IFN-γ in the supernatants was measured using AlphLISA kit (Cat # AL217).

In the case of `COc1cc(CN2C[C@H](C)N(c3cc(=O)n(C)c4ccc(C#N)nc34)C[C@H]2C)cc(C(F)(F)F)n1` [Example 280, 8-[(2S,5R)-4-{[2-methoxy-6-(trifluoromethyl)pyridin-4-yl]methyl}-2,5-dimethylpiperazin-1-yl]-5-methyl-6-oxo-5,6-dihydro-1,5-naphthyridine-2-carbonitrile], the figures for the EC50 in the assay with naïve human CD8 T cells (setting [1]) and in the assay with Human venous whole blood (setting [2]) were 680 nM and 7700 nM, respectively. Besides, the IC50 is 7900 nM on human DGKα (liposome (LIPGLO) assay) and 7300 nM on human DGKζ (liposome (LIPGLO) assay).

Regarding `C[C@@H]1CN(c2cc(=O)n(C)c3ccc(C#N)nc23)[C@@H](C)CN1C(c1ccc(F)cc1)c1ccon1` (single isomer, unassigned) [Example 707], the EC50 with naïve human CD8 T cells (setting [1]) came to 44 nM; with Human venous whole blood (setting [3]) it was 400 nM. For the same compound, the IC50 is 150 nM at human DGKα (liposome (LIPGLO) assay) and 1700 nM at human DGKζ (liposome (LIPGLO) assay).

`C[C@@H]1CN(c2cc(=O)n(C)c3ccc(C#N)nc23)[C@@H](C)CN1C(c1ccc(F)cc1)c1ccc(Cl)cn1` (single isomer, unassigned) [Example 212]: the EC50 is 57 nM with naïve human CD8 T cells (setting [3]) and 890 nM with Human venous whole blood (setting [3]). Further, the half-inhibitory concentration (IC50) turned out to be 210 nM at human DGKα (liposome (LIPGLO) assay) and 590 nM on human DGKζ (liposome (LIPGLO) assay).

As for `C[C@@H]1CN(c2cc(=O)n(C)c3ccc(C#N)nc23)[C@@H](C)CN1C(c1ccc(F)cc1)c1cccc2c1OC(F)(F)O2` (some centres unmarked) [Example 669], the EC50 in the assay with naïve human CD8 T cells (setting [3]) stood at 96 nM; with Human venous whole blood (setting [3]), 860 nM. The IC50 at human DGKα (liposome (LIPGLO) assay) is 140000 nM; on human DGKζ (liposome (LIPGLO) assay) it was 4800 nM.

On to `C[C@@H]1CN(c2cc(=O)n(C)c3ccc(C#N)nc23)[C@@H](C)CN1Cc1cc(F)ccc1F` [Example 262, 8-[(2S,5R)-4-[(2,5-difluorophenyl)methyl]-2,5-dimethylpiperazin-1-yl]-5-methyl-6-oxo-5,6-dihydro-1,5-naphthyridine-2-carbonitrile], for which the EC50 amounted to 310 nM with naïve human CD8 T cells (setting [1]) and 7100 nM with Human venous whole blood (setting [2]). Besides, the IC50 at human DGKα (liposome (LIPGLO) assay) was 640 nM; on human DGKζ (liposome (LIPGLO) assay), 2500 nM.

`C[C@@H]1CN(c2cc(=O)n(C)c3ccc(C#N)nc23)[C@@H](C)CN1C(c1ccc(F)cc1)c1nc(C2CC2)no1` (single isomer, unassigned) [Example 736]: the EC50 in the assay on naïve human CD8 T cells (setting [4]) worked out at 25 nM; in the assay with Human venous whole blood (Homo sapiens, 24 h, anti-CD3 plus anti-CD28, 24 hours, 3 μM reference compound = 100% activation), 150 nM. Also, the half-maximal inhibitory concentration (IC50) on human DGKα (DGKα liposome (LIPGLO) assay) worked out at 160 nM; on human DGKζ (DGKζ liposome (LIPGLO) assay) it was 480 nM.

As for `C[C@@H]1CN(c2cc(=O)n(C)c3ccc(C#N)nc23)[C@@H](C)CN1C(c1ccc(Cl)cc1)c1ccc(F)cn1` (single isomer, unassigned) [Example 192], the EC50 with naïve human CD8 T cells (setting [3]) turned out to be 56 nM; in the assay with Human venous whole blood (setting [3]) it was 600 nM. For the same compound, the half-inhibitory concentration (IC50) was found to be 120 nM on human DGKα (liposome (LIPGLO) assay) and 1500 nM on human DGKζ (liposome (LIPGLO) assay).

Regarding `C[C@@H]1CN(c2cc(=O)n(C)c3ccc(C#N)nc23)[C@@H](C)CN1C(c1ccc(F)cc1)C1CCCCO1` (single isomer, unassigned) [Example 359], the EC50 was found to be 38 nM with naïve human CD8 T cells (setting [1]) and 660 nM with Human venous whole blood (setting [3]). The IC50 was 280 nM at human DGKα (liposome (LIPGLO) assay) and 1100 nM on human DGKζ (liposome (LIPGLO) assay).

Turning to `C[C@@H]1CN(c2cc(=O)n(C)c3ccc(C#N)nc23)[C@@H](C)CN1Cc1cccc(F)c1` [Example 292, 8-[(2S,5R)-4-[(3-fluorophenyl)methyl]-2,5-dimethylpiperazin-1-yl]-5-methyl-6-oxo-5,6-dihydro-1,5-naphthyridine-2-carbonitrile], the half-maximal effective concentration (EC50) worked out at 1700 nM with naïve human CD8 T cells (setting [1]) and 2200 nM in the assay with Human venous whole blood (setting [2]). Moreover, the IC50 on human DGKα (liposome (LIPGLO) assay) is 280 nM; at human DGKζ (liposome (LIPGLO) assay) it was 3000 nM.

Consider `C[C@@H]1CN(c2cc(=O)n(C)c3ccc(C#N)nc23)[C@@H](C)CN1C(c1ccc(F)cc1)c1ccccn1` (single isomer, unassigned) [Example 198], for which the EC50 was determined as 21 nM in the assay with naïve human CD8 T cells (setting [3]) and 590 nM in the assay with Human venous whole blood (setting [3]). Moreover, the IC50 at human DGKα (liposome (LIPGLO) assay) was 240 nM; at human DGKζ (liposome (LIPGLO) assay), 870 nM.

Turning to `C[C@@H]1CN(c2c(C#N)c(=O)n(C)c3ccc(C#N)nc23)CCN1C(c1cccc(Cl)c1)c1ccc(F)cn1` (some centres unmarked) [Example 927], the EC50 in the assay on naïve human CD8 T cells (setting [4]) turned out to be 300 nM; in the assay with Human venous whole blood (anti-CD3 plus anti-CD28, 24 hours, 3 μM reference compound = 100% activation) it was 800 nM. The values for the IC50 on human DGKα (DGKα liposome (LIPGLO) assay) and on human DGKζ (DGKζ liposome (LIPGLO) assay) were 2600 nM and 1600 nM, respectively.
